Experimental data as given in patent US11739098B2 (BRISTOL-MYERS SQUIBB COMPANY, priority 2017, dated 2023).
pIC50: −log10 of the molar value.

Experiments:
Type in all cases: cell-based
human TLR7 = biological target: T1, human TLR7 (Homo sapiens, UniProt Q9NYK1); assay: TLR7 inhibition reporter assay (HEK-Blue cells, SEAP reporter, gardiquimod stimulation); conditions: HEK-Blue cells overexpressing human TLR7, SEAP reporter, gardiquimod 7.5 μM
T1 construct: host or cells: HEK-Blue cells (HEK293-derived reporter line)
T1 sequence (Q9NYK1 27-1049): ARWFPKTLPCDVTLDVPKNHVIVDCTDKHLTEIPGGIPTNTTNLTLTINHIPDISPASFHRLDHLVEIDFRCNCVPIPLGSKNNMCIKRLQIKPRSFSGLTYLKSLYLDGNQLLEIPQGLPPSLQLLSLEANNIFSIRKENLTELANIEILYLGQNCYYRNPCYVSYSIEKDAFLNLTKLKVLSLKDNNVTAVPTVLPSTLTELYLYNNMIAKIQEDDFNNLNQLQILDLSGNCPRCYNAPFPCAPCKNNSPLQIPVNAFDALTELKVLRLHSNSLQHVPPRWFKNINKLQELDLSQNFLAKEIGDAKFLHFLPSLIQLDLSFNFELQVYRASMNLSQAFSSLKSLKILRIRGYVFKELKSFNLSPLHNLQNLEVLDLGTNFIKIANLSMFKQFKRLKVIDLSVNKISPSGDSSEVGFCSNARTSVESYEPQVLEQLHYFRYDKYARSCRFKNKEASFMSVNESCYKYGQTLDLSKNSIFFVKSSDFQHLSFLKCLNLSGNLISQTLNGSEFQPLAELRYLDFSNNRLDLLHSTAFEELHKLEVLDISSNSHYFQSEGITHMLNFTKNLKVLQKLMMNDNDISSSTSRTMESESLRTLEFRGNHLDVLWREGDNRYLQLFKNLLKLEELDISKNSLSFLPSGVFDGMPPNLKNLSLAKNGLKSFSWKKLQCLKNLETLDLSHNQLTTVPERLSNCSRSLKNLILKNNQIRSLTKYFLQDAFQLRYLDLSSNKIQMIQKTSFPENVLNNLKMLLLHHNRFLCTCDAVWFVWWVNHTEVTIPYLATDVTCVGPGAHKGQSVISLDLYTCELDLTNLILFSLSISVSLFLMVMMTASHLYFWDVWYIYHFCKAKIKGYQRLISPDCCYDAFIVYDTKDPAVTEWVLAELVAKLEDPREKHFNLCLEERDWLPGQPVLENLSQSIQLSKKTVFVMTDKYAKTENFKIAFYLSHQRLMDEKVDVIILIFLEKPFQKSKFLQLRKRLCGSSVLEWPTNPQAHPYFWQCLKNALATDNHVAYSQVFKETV
In short: (§1)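 Percent inhibition of agonist-induced SEAP secretion in HEK-Blue cells after 22 h at 37 °C. Stimuli: 7.5 μM gardiquimod, 15.9 μM R848, 5 nM ODN2006 for TLR7, TLR8 and TLR9, added after 30 min compound exposure over a 0.05 nM–50 μM range.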

human TLR8 = biological target: T2, human TLR8 (Homo sapiens, UniProt Q9NR97); assay: TLR8 inhibition reporter assay (HEK-Blue cells, SEAP reporter, R848 stimulation); conditions: HEK-Blue cells overexpressing human TLR8, SEAP reporter, R848 15.9 μM
T2 construct: host or cells: HEK-Blue cells (HEK293-derived reporter line)
T2 sequence (Q9NR97 27-1041): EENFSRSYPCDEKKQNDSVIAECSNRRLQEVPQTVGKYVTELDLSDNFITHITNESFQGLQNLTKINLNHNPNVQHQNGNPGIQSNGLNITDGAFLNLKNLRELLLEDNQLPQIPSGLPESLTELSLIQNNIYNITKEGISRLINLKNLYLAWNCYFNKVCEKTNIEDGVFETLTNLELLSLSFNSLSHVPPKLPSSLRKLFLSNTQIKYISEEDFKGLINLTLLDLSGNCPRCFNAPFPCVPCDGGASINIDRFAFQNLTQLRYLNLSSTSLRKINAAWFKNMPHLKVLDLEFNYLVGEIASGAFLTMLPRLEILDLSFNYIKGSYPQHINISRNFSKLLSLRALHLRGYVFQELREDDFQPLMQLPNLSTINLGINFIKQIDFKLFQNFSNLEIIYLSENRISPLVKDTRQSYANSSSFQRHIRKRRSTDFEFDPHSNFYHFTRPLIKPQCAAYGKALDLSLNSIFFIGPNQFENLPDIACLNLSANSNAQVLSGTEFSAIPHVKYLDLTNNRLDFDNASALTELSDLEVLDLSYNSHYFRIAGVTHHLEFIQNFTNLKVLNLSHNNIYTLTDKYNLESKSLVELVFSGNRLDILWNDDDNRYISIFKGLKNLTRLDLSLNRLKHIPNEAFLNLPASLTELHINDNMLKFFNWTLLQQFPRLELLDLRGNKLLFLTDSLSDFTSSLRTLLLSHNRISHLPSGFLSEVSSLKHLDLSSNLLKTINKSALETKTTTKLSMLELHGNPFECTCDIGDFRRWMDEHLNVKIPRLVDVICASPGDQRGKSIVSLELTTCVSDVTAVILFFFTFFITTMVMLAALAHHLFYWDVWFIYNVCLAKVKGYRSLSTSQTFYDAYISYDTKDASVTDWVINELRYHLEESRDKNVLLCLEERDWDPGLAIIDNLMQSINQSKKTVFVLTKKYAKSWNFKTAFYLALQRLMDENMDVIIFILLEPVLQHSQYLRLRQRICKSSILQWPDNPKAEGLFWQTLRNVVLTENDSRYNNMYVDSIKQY
In short: as §1

human TLR9 = biological target: T3, human TLR9 (Homo sapiens, UniProt Q9NR96); assay: TLR9 inhibition reporter assay (HEK-Blue cells, SEAP reporter, ODN2006 stimulation); conditions: HEK-Blue cells overexpressing human TLR9, SEAP reporter, ODN2006 5 nM
T3 construct: host or cells: HEK-Blue cells (HEK293-derived reporter line)
T3 sequence (Q9NR96 26-1032): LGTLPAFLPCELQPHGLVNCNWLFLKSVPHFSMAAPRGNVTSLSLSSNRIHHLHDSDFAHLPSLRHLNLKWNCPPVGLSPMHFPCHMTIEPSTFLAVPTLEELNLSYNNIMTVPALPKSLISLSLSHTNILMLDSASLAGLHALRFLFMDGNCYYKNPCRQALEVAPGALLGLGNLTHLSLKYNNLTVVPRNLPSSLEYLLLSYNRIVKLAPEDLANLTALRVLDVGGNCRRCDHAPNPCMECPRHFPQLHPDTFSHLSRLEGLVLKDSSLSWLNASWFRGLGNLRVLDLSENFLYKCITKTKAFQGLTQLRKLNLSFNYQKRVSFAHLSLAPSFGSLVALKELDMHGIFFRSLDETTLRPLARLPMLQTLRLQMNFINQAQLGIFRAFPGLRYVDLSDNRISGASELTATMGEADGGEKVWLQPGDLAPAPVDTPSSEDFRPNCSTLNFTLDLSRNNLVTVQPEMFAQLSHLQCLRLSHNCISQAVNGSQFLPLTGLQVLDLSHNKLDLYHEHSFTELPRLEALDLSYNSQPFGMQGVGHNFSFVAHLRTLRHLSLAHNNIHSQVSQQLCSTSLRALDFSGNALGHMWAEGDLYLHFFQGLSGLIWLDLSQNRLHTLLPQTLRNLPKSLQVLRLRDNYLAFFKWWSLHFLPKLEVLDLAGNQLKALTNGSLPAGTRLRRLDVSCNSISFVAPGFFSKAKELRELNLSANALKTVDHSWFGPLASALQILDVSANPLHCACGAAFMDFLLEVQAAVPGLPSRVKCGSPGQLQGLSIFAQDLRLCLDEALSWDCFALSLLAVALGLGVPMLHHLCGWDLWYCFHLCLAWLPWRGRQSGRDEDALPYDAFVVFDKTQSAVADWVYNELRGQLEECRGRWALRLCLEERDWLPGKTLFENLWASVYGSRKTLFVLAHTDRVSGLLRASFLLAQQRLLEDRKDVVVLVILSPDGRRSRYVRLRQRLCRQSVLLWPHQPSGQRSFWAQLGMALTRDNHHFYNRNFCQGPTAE
In short: as §1

Row | pIC50 (human TLR7) | pIC50 (human TLR8) | pIC50 (human TLR9) | SMILES
1 | 6.00 to 7.00 | 6.00 to 7.00 | 4.30 to 6.00 | CC(C)c1c(-c2ccn3cnnc3c2)[nH]c2ccc(C3CCN(Cc4ncn(C)n4)CC3)cc12 [Example 880, 7-(3-isopropyl-5-(1-((1-methyl-1H-1,2,4-triazol-3-yl)methyl)piperidin-4-yl)-1H-indol-2-yl)-[1,2,4]triazolo[4,3-a]pyridine]
2 | > 7.00 | 6.00 to 7.00 | 4.30 to 6.00 | Cc1cc(-c2[nH]c3ccc(C4CCN(C(=O)CN(C)C)CC4)cc3c2C(C)C)cc2c1oc(=O)n2C [Example 489, 5-(5-(1-(dimethylglycyl)piperidin-4-yl)-3-isopropyl-1H-indol-2-yl)-3,7-dimethylbenzo[d]oxazol-2(3H)-one]
3 | 6.00 to 7.00 | < 5.51 | 4.30 to 6.00 | CNC(=O)c1cnn2c(C)cc(-c3[nH]c4ccc(C5CCNCC5)cc4c3C(C)C)cc12 [Example 274, 5-(3-isopropyl-5-(piperidin-4-yl)-1H-indol-2-yl)-N,7-dimethylpyrazolo[1,5-a]pyridine-3-carboxamide]
4 | > 7.00 | > 7.00 | 6.00 to 7.00 | COCCNC(=O)c1cn2cc(-c3[nH]c4ccc(C5CCNCC5)cc4c3C(C)C)cc(C)c2n1 [Example 269, 6-(3-isopropyl-5-(piperidin-4-yl)-1H-indol-2-yl)-N-(2-methoxyethyl)-8-methylimidazo[1,2-a]pyridine-2-carboxamide]
5 | 6.00 to 7.00 | 6.00 to 7.00 | 6.00 to 7.00 | CC(C)c1c(-c2ccc3c(N)n[nH]c3c2)[nH]c2ccc(C3CCNCC3)cc12 [Example 84, 6-(3-isopropyl-5-(piperidin-4-yl)-1H-indol-2-yl)-1H-indazol-3-amine]
6 | > 7.00 | 6.00 to 7.00 | 6.00 to 7.00 | CC(C)c1c(-c2ccn3cnnc3c2)[nH]c2ccc(C3CCN(C(=O)CN(C)C)CC3)cc12 [Example 466, 1-(4-(2-([1,2,4]triazolo[4,3-a]pyridin-7-yl)-3-isopropyl-1H-indol-5-yl)piperidin-1-yl)-2-(dimethylamino)ethan-1-one]
7 | 6.00 to 7.00 | 6.00 to 7.00 | 4.30 to 6.00 | CC(C)c1c(-c2ccc3nccn3c2)[nH]c2ccc(C3CCN(CC(=O)NCC(F)(F)F)CC3)cc12 [Example 401, 2-(4-(2-(imidazo[1,2-a]pyridin-6-yl)-3-isopropyl-1H-indol-5-yl)piperidin-1-yl)-N-(2,2,2-trifluoroethyl)acetamide]
8 | > 7.00 | 6.00 to 7.00 | < 4.30 | Cc1cc(-c2[nH]c3ccc(C4CCN(C(=O)CN5CC(C)(C)OC(C)(C)C5)CC4)cc3c2C(C)C)cn2nnnc12 [Example 473, 1-(4-(3-isopropyl-2-(8-methyltetrazolo[1,5-a]pyridin-6-yl)-1H-indol-5-yl)piperidin-1-yl)-2-(2,2,6,6-tetramethylmorpholino)ethan-1-one]
9 | > 7.00 | 6.00 to 7.00 | 6.00 to 7.00 | Cc1nc2c(C)cc(-c3[nH]c4ccc(C5CCN(C(=O)CN(C)C)CC5)cc4c3C(C)C)cn2c1C [Example 527, 2-(dimethylamino)-1-(4-(3-isopropyl-2-(2,3,8-trimethylimidazo[1,2-a]pyridin-6-yl)-1H-indol-5-yl)piperidin-1-yl)ethan-1-one]
10 | > 7.00 | > 7.00 | 4.30 to 6.00 | CC(C)c1c(-c2cn(C)c3ncccc23)[nH]c2ccc(C3CCN(Cc4ncn(C)n4)CC3)cc12 [Example 878, 3-(3-isopropyl-5-(1-((1-methyl-1H-1,2,4-triazol-3-yl)methyl)piperidin-4-yl)-1H-indol-2-yl)-1-methyl-1H-pyrrolo[2,3-b]pyridine]
11 | > 7.00 | 6.00 to 7.00 | 4.30 to 6.00 | CC(C)c1c(-c2ccc3nccnc3c2)[nH]c2ccc(C3CCNCC3)cc12 [Example 165, 6-(3-isopropyl-5-(piperidin-4-yl)-1H-indol-2-yl)quinoxaline]
12 | > 7.00 | > 7.00 | 4.30 to 6.00 | Cc1c(-c2[nH]c3ccc(C4CCN(C(=O)CCN5CCOCC5)CC4)cc3c2C(C)C)cn2nnnc2c1C [Example 619, 1-(4-(2-(7,8-dimethyltetrazolo[1,5-a]pyridin-6-yl)-3-isopropyl-1H-indol-5-yl)piperidin-1-yl)-3-morpholinopropan-1-one]
13 | > 7.00 | > 7.00 | 6.00 to 7.00 | CNC(=O)CN1CCC(c2ccc3[nH]c(-c4cn5ccnc5c(C)c4C)c(C(C)C)c3c2)CC1 [Example 413, 2-(4-(2-(7,8-dimethylimidazo[1,2-a]pyridin-6-yl)-3-isopropyl-1H-indol-5-yl)piperidin-1-yl)-N-methylacetamide]
14 | > 7.00 | 6.00 to 7.00 | 4.30 to 6.00 | CC(C)c1c(-c2ccc3nnnn3c2)[nH]c2ccc(C3CCNCC3)cc12 [Example 80, 6-(3-isopropyl-5-(piperidin-4-yl)-1H-indol-2-yl)tetrazolo[1,5-a]pyridine]
